Reference: patent US7785828B1 (priority 2003, dated 2010)
Where two headings read alike, the source gives them in different places.

How the values were obtained:
Format in all cases: cell-based
[1] = test system: Fusarium graminearum
[2] = test system: Fusarium graminearum
[3] = test system: Mycosphaerella fijiensis
[4] = test system: Septoria tritici
[5] = Table 2C (mixed diversity library), improvement compared to reference defensin protein DmAMP
[6] = Measurement taken at 72 hours after inoculation, fold improvement compared to DmAMP1
[7] = Measurement taken at 144 hours after inoculation, fold improvement compared to DmAMP1
[8] = Table 2B (Dm-AMP1 based libraries), improvement compared to reference defensin protein (Rs-AFP2 for Table 2B [sic])

Row | Sequence | Activity (1): antifungal activity of the NP against Fusarium graminearium [1, 5] | Antifungal activity, Fusarium graminearum (improvement compared to DmAMP1) [2, 6] | Antifungal activity, Mycosphaerella fijiensis (improvement compared to DmAMP1) [3, 7] | Antifungal activity, Septoria tritici (improvement compared to DmAMP1) [4, 7] | Activity (1): antifungal activity of the NP against Fusarium graminearium [1, 8] | Antifungal activity, Fusarium graminearum (improvement compared to DmAMP1) [2] | Antifungal activity, Mycosphaerella fijiensis (improvement compared to DmAMP1) [3] | Antifungal activity, Septoria tritici (improvement compared to DmAMP1) [4]
1 | DGVKLCERPSQTWSGHCGNTKHCDKQCRNWEGAKHGACHVRNGKWKCFCYFNC (Defensin like) [L7-87] | +++ (+++ indicates a >10-fold improvement) | +++ (+++ indicating >10-fold improvement) | + (+ indicating 1- to 5-fold improvement compared to DmAMP1) | ++ (++ indicating >5- to 10-fold improvement) | – | – | – | –
2 | NLCERASKTWTGNCGNTKHCDNQCRNWEGAKHGACHKRSGKWKCFCYFNC (Defensin like) [L9-15] | – | ++ (++ indicating >5- to 10-fold improvement) | + (+ indicating 1- to 5-fold improvement compared to DmAMP1) | ++ (++ indicating >5- to 10-fold improvement) | +++ (+++ indicates a >10-fold improvement) | – | – | –
3 | DGVKLCERASQTWTGHCGNTKHCDKQCKNWEGAKHGACHKRNGKWKCFCYFNC (Defensin like) [L7-432] | +++ (+++ indicates a >10-fold improvement) | +++ (+++ indicating >10-fold improvement) | +++ (+++ indicating >10-fold improvement) | + (+ indicating 1- to 5-fold improvement compared to DmAMP1) | – | – | – | –
4 | DGVKLCERPSQTWTGNCGNTKHCDKQCKNWEKAKHGACHVRNGKWKCFCYFNC (Defensin like) [L7-457] | +++ (+++ indicates a >10-fold improvement) | + (+ indicating 1- to 5-fold improvement compared to DmAMP1) | + (+ indicating 1- to 5-fold improvement compared to DmAMP1) | + (+ indicating 1- to 5-fold improvement compared to DmAMP1) | – | – | – | –
5 | NLCERASKTWTGNCGNTKHCDNQCKNWEGAKHGACHVRNGKWKCFCYFNC [L6-41] (Defensin like) | – | + (+ indicating 1- to 5-fold improvement compared to DmAMP1) | + (+ indicating 1- to 5-fold improvement compared to DmAMP1) | + (+ indicating 1- to 5-fold improvement compared to DmAMP1) | +++ (+++ indicates a >10-fold improvement) | – | – | –
6 | DGVKLCEKPSQTWTGNCGNTKHCDTQCRNWEGAKHGACHKRNGKWKCFCYFNC (Defensin like) [L7-427] | ++ (++ indicates a >5- to 10-fold improvement) | ++ (++ indicating >5- to 10-fold improvement) | + (+ indicating 1- to 5-fold improvement compared to DmAMP1) | + (+ indicating 1- to 5-fold improvement compared to DmAMP1) | – | – | – | –
7 | NLCERASKTWTGNCGNTKHCDNQCRSWEGAKHGACHVRNGKHKCFCYFNC (Defensin like) [L6-75] | – | +++ (+++ indicating >10-fold improvement) | + (+ indicating 1- to 5-fold improvement compared to DmAMP1) | +++ (+++ indicating >10-fold improvement) | ++ (++ indicates a >5- to 10-fold improvement) | – | – | –
8 | DGVKLCERASQTWSGHCGNTKHCDNQCKSWEKAKHGACHVRSGKHKCFCYFNC (Defensin like) [L7-58] | +++ (+++ indicates a >10-fold improvement) | + (+ indicating 1- to 5-fold improvement compared to DmAMP1) | + (+ indicating 1- to 5-fold improvement compared to DmAMP1) | + (+ indicating 1- to 5-fold improvement compared to DmAMP1) | – | – | – | –
9 | NLCERASKTWTGNCGNTKHCDNQCKNWEGAKHGACHVRNGKWKCFCYFNC [L6-21] (Defensin like) | – | +++ (+++ indicating >10-fold improvement) | + (+ indicating 1- to 5-fold improvement compared to DmAMP1) | +++ (+++ indicating >10-fold improvement) | +++ (+++ indicates a >10-fold improvement) | – | – | –
10 | DGVKLCERASKTWTGNCGNTKHCDKQCKNWEGAKHGACHVRNGKWKCFCYFNC (Defensin like) [L7-449] | ++ (++ indicates a >5- to 10-fold improvement) | +++ (+++ indicating >10-fold improvement) | + (+ indicating 1- to 5-fold improvement compared to DmAMP1) | ++ (++ indicating >5- to 10-fold improvement) | – | – | – | –
11 | DGVKLCERASQTWTGHCGNTKHCDKQCRNWEGAKHGACHKRNGKWKCFCYFNC (Defensin like) [L7-179] | +++ (+++ indicates a >10-fold improvement) | + (+ indicating 1- to 5-fold improvement compared to DmAMP1) | + (+ indicating 1- to 5-fold improvement compared to DmAMP1) | + (+ indicating 1- to 5-fold improvement compared to DmAMP1) | – | – | – | –
12 | DGVKLCERASKTWSGHCGNTKHCDNQCRSWEGAKHGACHVRNGKWKCFCYFNC (Defensin like) [L7-452] | +++ (+++ indicates a >10-fold improvement) | ++ (++ indicating >5- to 10-fold improvement) | + (+ indicating 1- to 5-fold improvement compared to DmAMP1) | + (+ indicating 1- to 5-fold improvement compared to DmAMP1) | – | – | – | –
13 | NLCEKASKTWTGNCGNTKHCDNQCRNWEGAAHGACHKRNGKWKCFCYFNC (Defensin like) [L3-71] | – | – | – | – | – | +++ (key: + indicating 1- to 5-fold improvement compared to DmAMP1; ++ indicating >5- to 10-fold improvement; +++ indicating >10-fold improvement) | +++ (key: + indicating 1- to 5-fold improvement compared to DmAMP1; ++ indicating >5- to 10-fold improvement; +++ indicating >10-fold improvement) | +++ (key: + indicating 1- to 5-fold improvement compared to DmAMP1; ++ indicating >5- to 10-fold improvement; +++ indicating >10-fold improvement)
14 | NLCEKASKTWSGNCGNTGHCDTQCKNWEGAKHGACHVRNGKHKCFCYFNC (Defensin like) [L5-12] | – | – | – | – | – | ++ (key: + indicating 1- to 5-fold improvement compared to DmAMP1; ++ indicating >5- to 10-fold improvement; +++ indicating >10-fold improvement) | + (key: + indicating 1- to 5-fold improvement compared to DmAMP1; ++ indicating >5- to 10-fold improvement; +++ indicating >10-fold improvement) | ++ (key: + indicating 1- to 5-fold improvement compared to DmAMP1; ++ indicating >5- to 10-fold improvement; +++ indicating >10-fold improvement)
15 | NLCERASKTWSGNCGNTKHCDTQCKNWEGAAHGACHKRNGKWKCFCYFNC (Defensin like) [L9-13] | – | – | – | – | – | ++ (key: + indicating 1- to 5-fold improvement compared to DmAMP1; ++ indicating >5- to 10-fold improvement; +++ indicating >10-fold improvement) | + (key: + indicating 1- to 5-fold improvement compared to DmAMP1; ++ indicating >5- to 10-fold improvement; +++ indicating >10-fold improvement) | + (key: + indicating 1- to 5-fold improvement compared to DmAMP1; ++ indicating >5- to 10-fold improvement; +++ indicating >10-fold improvement)
16 | NLCERASKTWTGNCGNTKHCDNQCKSWEGAAHGACHVRNGKHKCFCYFNC (Defensin like) [L5-24] | – | – | – | – | – | +++ (key: + indicating 1- to 5-fold improvement compared to DmAMP1; ++ indicating >5- to 10-fold improvement; +++ indicating >10-fold improvement) | + (key: + indicating 1- to 5-fold improvement compared to DmAMP1; ++ indicating >5- to 10-fold improvement; +++ indicating >10-fold improvement) | ++ (key: + indicating 1- to 5-fold improvement compared to DmAMP1; ++ indicating >5- to 10-fold improvement; +++ indicating >10-fold improvement)
